Experimental data as given in article PMC11879040, “Advancing systemic toxicity risk assessment: Evaluation of a NAM-based toolbox approach” (Toxicological Sciences, 2024).
Read-outs that look alike come from different tables or passages of the source.

Tests used:
HepG2 cells [1] = test: High-throughput transcriptomics (HTTr, TempO-Seq), HepG2, 24 h; type: cell-based, human; settings: HepG2; for pod_httr_bifrost PoD: HTTr BIFROST PoD; for podl_path_minbmd PoD: HTTr minimum pathway BMD(L)
Protocol: (§1) HepG2, HepaRG, and MCF7 cells were treated with each compound for 24 h across a dose range of 7 concentrations and lysed using TempO-Seq lysis buffer (BioSpyder Technologies, proprietary kit, see [Middleton et al. 2022] for method details). Sequencing was performed using TempO-Seq (BioClavis) version 2 of the human whole transcriptome panel and analyzed as described previously in Middleton et al.

[2] = molecular target: T1, Constitutive androstane receptor CAR, NR1I3 (h) (Homo sapiens, UniProt Q14994); type: biochemical
T1 sequence (Q14994 1-352): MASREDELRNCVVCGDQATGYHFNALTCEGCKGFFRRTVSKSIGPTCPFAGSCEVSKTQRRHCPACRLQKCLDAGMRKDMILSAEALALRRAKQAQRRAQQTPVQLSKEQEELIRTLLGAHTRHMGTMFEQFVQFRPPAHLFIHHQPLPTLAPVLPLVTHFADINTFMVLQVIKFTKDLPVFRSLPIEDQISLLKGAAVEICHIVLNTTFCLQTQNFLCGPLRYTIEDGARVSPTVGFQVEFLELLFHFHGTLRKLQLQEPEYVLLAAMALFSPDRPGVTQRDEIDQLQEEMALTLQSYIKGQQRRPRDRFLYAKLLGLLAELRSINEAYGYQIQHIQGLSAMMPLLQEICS

[3] = human
HepG2 cells [4] = test: Cell stress panel (CSP), 24 h, 8 concentrations, BIFROST global PoD; type: cell-based; settings: HepG2; cell stress panel PoD
Protocol: Compounds were tested using the previously developed cell stress panel ([Hatherell et al. 2020]) and the expanded biomarker panel outlined in Middleton et al. HepG2 cells were treated with all compounds for 24 h across 8 concentrations prior to biomarker analysis. The same plate layout and number of replicates (3 biological and 2 technical) were used as previously for each assay within the panel.

[5] = tested on: Thyroid hormone receptor alpha, THRA (h); test: IPP THRA coactivator recruitment (agonist); type: biochemical, human; settings: agonist, T3
[6] = tested on: 63 targets with known safety liabilities; test: In vitro pharmacological profiling (IPP) panel, screening at 10 or 100 µM and dose response, minimum IC50/AC50; type: biochemical; settings: lowest AC50 across IPP panel (systemic targets); cell_type -; read-out: ipp_lowest_ac50_systemic PoD
[7] = tested on: Gamma-aminobutyric acid receptor subunit alpha-1 BZD site, GABRA1A (r); type: binding, rat
[8] = molecular target: Potassium voltage-gated channel subfamily H member 2 hERG, KCNH2 (h) (Homo sapiens, UniProt Q12809); settings: human, 100 µM
Chain of Potassium voltage-gated channel subfamily H member 2 hERG, KCNH2 (h) (Q12809 whole entry): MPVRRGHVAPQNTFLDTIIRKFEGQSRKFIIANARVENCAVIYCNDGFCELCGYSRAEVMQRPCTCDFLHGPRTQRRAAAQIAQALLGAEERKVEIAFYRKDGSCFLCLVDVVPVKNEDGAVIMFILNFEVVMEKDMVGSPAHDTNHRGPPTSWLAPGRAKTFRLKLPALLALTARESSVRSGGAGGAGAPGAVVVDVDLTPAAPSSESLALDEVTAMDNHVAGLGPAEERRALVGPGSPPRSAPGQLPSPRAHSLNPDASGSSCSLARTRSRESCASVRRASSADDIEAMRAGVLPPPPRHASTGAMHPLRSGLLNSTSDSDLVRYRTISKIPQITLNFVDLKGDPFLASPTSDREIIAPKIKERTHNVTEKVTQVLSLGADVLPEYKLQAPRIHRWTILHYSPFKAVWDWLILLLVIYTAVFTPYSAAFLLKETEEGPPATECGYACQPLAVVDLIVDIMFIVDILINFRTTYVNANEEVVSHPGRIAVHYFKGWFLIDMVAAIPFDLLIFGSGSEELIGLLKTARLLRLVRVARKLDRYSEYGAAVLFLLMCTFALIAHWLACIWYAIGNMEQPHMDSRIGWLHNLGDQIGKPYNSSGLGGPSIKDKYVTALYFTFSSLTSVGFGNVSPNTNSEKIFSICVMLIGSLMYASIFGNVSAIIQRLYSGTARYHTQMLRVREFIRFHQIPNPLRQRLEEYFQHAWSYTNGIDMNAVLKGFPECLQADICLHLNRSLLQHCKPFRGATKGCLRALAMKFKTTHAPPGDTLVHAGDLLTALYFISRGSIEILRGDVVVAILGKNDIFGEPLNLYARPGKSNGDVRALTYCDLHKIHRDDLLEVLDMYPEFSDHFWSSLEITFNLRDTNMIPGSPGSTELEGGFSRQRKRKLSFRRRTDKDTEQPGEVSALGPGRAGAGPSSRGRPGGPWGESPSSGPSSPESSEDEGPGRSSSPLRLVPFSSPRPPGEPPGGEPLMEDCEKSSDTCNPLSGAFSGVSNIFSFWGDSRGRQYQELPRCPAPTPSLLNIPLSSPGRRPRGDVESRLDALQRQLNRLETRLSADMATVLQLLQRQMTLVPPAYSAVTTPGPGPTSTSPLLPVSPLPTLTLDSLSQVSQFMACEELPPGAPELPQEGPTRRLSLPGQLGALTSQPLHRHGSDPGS

[9] = molecular target: T2, Estrogen receptor, ER1 (h) (Homo sapiens, UniProt P03372); test: IPP ER1 coactivator recruitment (antagonist); type: biochemical; settings: 100 uM, estriol, * denotes assay interference (2-Amino-6-chloro-4-nitrophenol, HC Red 3)
T2 construct: purchased Eurofins Cerep (SafetyScreen44-based IPP panel)
T2 sequence (P03372 1-595): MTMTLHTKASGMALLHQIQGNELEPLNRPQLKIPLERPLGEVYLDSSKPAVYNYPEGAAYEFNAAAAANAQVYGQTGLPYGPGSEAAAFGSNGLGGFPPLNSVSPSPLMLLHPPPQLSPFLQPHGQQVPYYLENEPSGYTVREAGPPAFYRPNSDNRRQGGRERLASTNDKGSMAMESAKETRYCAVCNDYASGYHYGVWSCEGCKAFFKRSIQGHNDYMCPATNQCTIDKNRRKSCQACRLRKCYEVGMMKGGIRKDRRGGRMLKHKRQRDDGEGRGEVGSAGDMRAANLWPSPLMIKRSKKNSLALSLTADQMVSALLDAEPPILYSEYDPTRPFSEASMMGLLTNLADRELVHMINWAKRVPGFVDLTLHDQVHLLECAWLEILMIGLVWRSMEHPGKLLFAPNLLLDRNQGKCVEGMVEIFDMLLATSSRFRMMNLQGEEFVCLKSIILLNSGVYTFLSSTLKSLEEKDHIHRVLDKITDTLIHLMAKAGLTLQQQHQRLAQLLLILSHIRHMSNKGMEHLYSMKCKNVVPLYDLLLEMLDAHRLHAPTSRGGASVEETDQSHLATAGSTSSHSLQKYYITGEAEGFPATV

[10] = molecular target: T3, Adenosine receptor A2a, ADORA2A (h) (Homo sapiens, UniProt P29274); test: IPP ADORA2A binding (agonist radioligand); settings: control NECA
T3 construct: purchased Eurofins Cerep (SafetyScreen44-based IPP panel)
T3 sequence (P29274 whole entry): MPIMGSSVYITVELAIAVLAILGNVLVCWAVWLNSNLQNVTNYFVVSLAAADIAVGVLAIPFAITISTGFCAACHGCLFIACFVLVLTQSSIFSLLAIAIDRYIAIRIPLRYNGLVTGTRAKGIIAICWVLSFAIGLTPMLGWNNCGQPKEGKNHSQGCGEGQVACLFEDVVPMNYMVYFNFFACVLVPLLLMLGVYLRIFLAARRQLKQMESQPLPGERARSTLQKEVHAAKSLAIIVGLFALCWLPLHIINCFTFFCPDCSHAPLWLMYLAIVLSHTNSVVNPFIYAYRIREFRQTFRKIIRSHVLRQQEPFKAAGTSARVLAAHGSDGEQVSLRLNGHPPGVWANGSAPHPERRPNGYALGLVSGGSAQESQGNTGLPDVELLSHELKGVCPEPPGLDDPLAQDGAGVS

MCF7 cells = test: High-throughput transcriptomics (HTTr, TempO-Seq), MCF7, 24 h; type: cell-based, human; settings: MCF-7; for pod_httr_bifrost PoD: HTTr BIFROST PoD; for podl_path_minbmd PoD: HTTr minimum pathway BMD(L)
Protocol: as §1

[11] = tested on: Glutamate receptor ionotropic NMDA 1 non-selective, GRIN1 (r)
HepaRG cells = test: High-throughput transcriptomics (HTTr, TempO-Seq), HepaRG, 24 h; type: cell-based, human; settings: HepaRG; for pod_httr_bifrost PoD: HTTr BIFROST PoD; for podl_path_minbmd PoD: HTTr minimum pathway BMD(L)
Protocol: as §1

[12] = molecular target: T4, Pregnane X receptor PXR, NR1I2 (h) (Homo sapiens, UniProt O75469)
T4 sequence (O75469 1-434): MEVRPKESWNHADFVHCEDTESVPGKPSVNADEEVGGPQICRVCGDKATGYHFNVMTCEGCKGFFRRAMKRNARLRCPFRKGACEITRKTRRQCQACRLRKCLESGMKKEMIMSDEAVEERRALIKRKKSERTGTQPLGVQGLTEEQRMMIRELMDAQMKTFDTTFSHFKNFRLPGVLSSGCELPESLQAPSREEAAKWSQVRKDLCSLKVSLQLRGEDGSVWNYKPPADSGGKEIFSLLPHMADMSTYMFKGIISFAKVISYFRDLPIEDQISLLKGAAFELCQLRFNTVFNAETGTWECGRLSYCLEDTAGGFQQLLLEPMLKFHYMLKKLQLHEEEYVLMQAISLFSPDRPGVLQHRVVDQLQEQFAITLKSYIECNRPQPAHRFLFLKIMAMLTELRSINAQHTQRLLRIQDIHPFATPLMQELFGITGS

Tubulin (r) = test: IPP Tubulin binding; design: species or system rat
[13] = tested on: Sodium channel protein type 5 subunit alpha (site 2), SCN5A (r); type: binding, rat
[14] = molecular target: T2, Estrogen receptor, ER1 (h); test: IPP ER1 coactivator recruitment (agonist); type: biochemical; settings: 100 uM, estriol, * denotes assay interference (2-Amino-6-chloro-4-nitrophenol, HC Red 3)
rat = settings: ref [2], cited from earlier work
[15] = PBK level L2; per chemical see Peff Reference; ref [3],[4],[11]; cited from earlier work
[16] = tested on: Potassium Voltage-Gated Channel Kv non-selective, KCNQ1 (r); test: IPP KCNQ1 binding (antagonist radioligand); design: species or system rat; settings: control α-dendrotoxin
mouse = settings: mouse, in vivo; cited from earlier work
[17] = 12 healthy female, cited from earlier work
[18] = molecular target: Voltage-dependent L-type Ca2+ channel (dihydropyridine site), CACNA1C (r) (Rattus norvegicus, UniProt P22002); type: binding
Chain of Voltage-dependent L-type Ca2+ channel (dihydropyridine site), CACNA1C (r) (P22002 whole entry): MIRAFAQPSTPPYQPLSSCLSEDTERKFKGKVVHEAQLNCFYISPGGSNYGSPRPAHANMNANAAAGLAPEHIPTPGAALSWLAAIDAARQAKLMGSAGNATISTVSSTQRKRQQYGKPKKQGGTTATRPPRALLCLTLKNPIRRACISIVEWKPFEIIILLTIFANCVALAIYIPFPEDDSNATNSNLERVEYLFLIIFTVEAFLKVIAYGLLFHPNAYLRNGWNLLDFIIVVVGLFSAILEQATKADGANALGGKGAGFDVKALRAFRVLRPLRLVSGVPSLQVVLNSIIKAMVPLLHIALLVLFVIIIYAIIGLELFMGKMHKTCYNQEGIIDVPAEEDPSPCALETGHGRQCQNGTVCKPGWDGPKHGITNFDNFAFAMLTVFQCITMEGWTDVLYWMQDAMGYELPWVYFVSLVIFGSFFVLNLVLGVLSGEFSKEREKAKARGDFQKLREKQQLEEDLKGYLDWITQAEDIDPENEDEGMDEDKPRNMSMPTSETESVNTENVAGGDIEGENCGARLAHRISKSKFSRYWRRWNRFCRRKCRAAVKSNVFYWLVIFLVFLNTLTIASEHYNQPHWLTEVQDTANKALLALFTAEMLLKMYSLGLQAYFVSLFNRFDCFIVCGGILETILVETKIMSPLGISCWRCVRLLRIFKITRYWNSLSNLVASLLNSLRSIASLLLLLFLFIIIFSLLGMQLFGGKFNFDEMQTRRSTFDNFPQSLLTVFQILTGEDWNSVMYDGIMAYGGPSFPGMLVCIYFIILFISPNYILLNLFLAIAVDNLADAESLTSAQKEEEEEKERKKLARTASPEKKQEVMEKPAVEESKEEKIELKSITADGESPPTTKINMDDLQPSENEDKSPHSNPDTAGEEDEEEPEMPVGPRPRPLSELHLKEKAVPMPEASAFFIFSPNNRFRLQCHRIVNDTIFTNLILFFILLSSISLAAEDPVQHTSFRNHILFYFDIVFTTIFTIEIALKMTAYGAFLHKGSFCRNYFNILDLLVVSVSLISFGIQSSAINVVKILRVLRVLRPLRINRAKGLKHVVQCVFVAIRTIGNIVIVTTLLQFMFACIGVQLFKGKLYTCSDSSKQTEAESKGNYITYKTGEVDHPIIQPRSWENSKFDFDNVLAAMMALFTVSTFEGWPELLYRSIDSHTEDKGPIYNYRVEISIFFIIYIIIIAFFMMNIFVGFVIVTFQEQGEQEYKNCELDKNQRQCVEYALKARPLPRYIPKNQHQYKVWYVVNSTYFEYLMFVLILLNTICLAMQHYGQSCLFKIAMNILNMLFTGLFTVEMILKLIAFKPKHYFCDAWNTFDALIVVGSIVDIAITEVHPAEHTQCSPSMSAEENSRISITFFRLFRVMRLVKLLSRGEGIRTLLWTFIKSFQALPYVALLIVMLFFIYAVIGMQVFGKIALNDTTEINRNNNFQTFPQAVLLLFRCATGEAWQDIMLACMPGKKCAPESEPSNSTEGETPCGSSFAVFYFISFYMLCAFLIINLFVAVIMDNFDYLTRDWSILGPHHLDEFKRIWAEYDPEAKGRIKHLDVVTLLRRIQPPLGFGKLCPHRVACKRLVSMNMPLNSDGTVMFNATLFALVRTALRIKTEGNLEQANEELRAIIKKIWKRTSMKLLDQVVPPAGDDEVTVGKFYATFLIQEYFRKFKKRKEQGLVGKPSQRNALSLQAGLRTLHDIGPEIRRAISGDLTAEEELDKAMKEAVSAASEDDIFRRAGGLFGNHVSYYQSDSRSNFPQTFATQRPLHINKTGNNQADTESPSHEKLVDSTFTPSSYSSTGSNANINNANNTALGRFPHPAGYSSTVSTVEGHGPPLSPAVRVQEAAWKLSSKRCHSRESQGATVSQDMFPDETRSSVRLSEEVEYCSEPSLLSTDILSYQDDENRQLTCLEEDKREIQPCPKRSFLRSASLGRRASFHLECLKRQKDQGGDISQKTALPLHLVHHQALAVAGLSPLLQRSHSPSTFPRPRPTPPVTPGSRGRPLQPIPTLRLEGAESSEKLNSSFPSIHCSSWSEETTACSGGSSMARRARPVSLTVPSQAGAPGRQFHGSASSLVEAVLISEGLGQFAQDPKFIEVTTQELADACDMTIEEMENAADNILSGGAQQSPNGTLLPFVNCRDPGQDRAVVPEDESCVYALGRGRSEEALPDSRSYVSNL

[19] = Oral 50 mg (IR: Capsule), fasted, calibration, ref Huttner et al. 2018
[20] = human, Oral 100 mg, Fasted, validation, ref Huttner et al., Journal of Antimicrobial Chemotherapy (2018) 74(6): 1656-1661

Nc1cc([N+](=O)[O-])cc(Cl)c1O [2-Amino-6-chloro-4-nitrophenol]
pod_httr_bifrost PoD (HepG2 cells [1]): 0.8029 µM
podl_path_minbmd PoD (HepG2 cells [1]): 158.096 µM
IPP Dose Response PoD: CAR antagonist effect [2]: [40.9,86.1]
risk [3]: 0
pod_cell_stress PoD (HepG2 cells [4]): 0.2197 µM
IPP screening %, Coactivator recruitment ([5]; 100 uM, * denotes assay interference (2-Amino-6-chloro-4-nitrophenol, HC Red 3)): 41.0* %
AC50 [6]: 1.53 µM
Specific binding ([7]; IPP screening at 100 uM, control diazepam): 14.3%
IPP screening %, Specific binding [8]: 10.7%
IPP screening %, Coactivator recruitment [9]: -9.0* %
Specific binding ([10]; IPP screening at 100 uM): 3.6%
pod_httr_bifrost PoD (MCF7 cells): 0.4471 µM
podl_path_minbmd PoD (MCF7 cells): 9.316 µM
Specific binding ([11]; IPP screening at 100 uM, control CGS 19755): 21.2%
pod_httr_bifrost PoD (HepaRG cells): 1.518 µM
podl_path_minbmd PoD (HepaRG cells): 35.7772 µM
IPP Dose Response PoD: PXR antagonist [12]: [37.1,80.3]
IPP screening %, Specific binding (Tubulin (r); 100 uM, ligand/control Colchicine): 5.0%
Specific binding ([13]; IPP screening at 100 uM, control veratridine): 31.5%
IPP screening %, Coactivator recruitment [14]: 6.0* %
NOAEL (rat; 90-day rat study, increased liver weights): 10 mg/kg bw/day
dose up to which no maternal or fetal effects were observed (rat; reproductive and developmental toxicity rat study): 90 mg/kg bw/day
Peff [15]: 7.96 cm/s x E-04
Specific binding ([16]; IPP screening at 100 uM): 13.7%

O=C1CN(N=Cc2ccc([N+](=O)[O-])o2)C(=O)N1 [Nitrofurantoin, 1-{[(5-Nitrofuran-2-yl)methylidene]amino}imidazolidine-2,4-dione]
PoD (NOAEL) (mouse): 60 mg/kg bw/day
pod_httr_bifrost PoD (HepG2 cells [1]): 0.5233 µM
podl_path_minbmd PoD (HepG2 cells [1]): 2.98 µM
risk [3]: 1
pod_cell_stress PoD (HepG2 cells [4]): 0.5175 µM
IPP screening %, Coactivator recruitment ([5]; 10 uM): 0.0%
Specific binding [7]: 7.2%
Specific binding ([10]; IPP screening at 10 uM): 37.8%
pod_httr_bifrost PoD (MCF7 cells): 0.3553 µM
podl_path_minbmd PoD (MCF7 cells): 7.519 µM
Specific binding [11]: -2.8%
Reported AUC0-t [17, 19]: 3040 to 6400 ng·h/mL
Reported cmax [17, 19]: 0.21 to 0.45 mg/L
Reported tmax [17, 19]: 30 to 300 min
Reported AUC0-t [17, 20]: 940 to 10970 ng·h/mL
Reported cmax [17, 20]: 0.22 to 1.26 mg/L
Reported tmax [17, 20]: 30 to 300 min
pod_httr_bifrost PoD (HepaRG cells): 0.1863 µM
podl_path_minbmd PoD (HepaRG cells): 2.332 µM
IPP screening %, Specific binding (Tubulin (r)): 7.0%
Specific binding [13]: 4.4%
Specific binding ([16]; IPP screening at 10 uM): -14.6%
Specific binding [18]: -6.9%
